According to patent publication US6875760B2 (Novo Nordisk A/S, priority 1999, dated 2005):

target: T1, cloned human glucagon receptor (Homo sapiens, UniProt P47871); assay: Glucagon Binding Assay (II); conditions: screened at 1 μM; library compounds; read-out: displacement of the glucagon tracer when screened at 1 μM concentration in the glucagon binding assay II
T1 construct: expressed in transfected cells; plasma membrane preparation
Description: Binding of compounds to the glucagon receptor was determined in a competition binding assay using the cloned human glucagon receptor.
The receptor inserted in the pLJ6′ expression vector using EcoRI/SSt1 restriction sites (Lok et al.) was expressed in a baby hamster kidney cell line (A3 BHK 570-25).
The homogenate was resuspended and centrifuged again. The final precipitate containing the plasma membranes was suspended in buffer and stored at −80° C. until use.
Binding assays were carried out in duplicate in polypropylene tubes or microtiter plates. The buffer used in this assay was 50 mM HEPES pH 7.4 containing 5 mM EGTA, 5 mM MgCl2 and 0.005% Tween 20. Sample (glucagon (Bachem CA) or test compounds) was added to each tube or well. Tracer (˜25.000 cpm) was diluted in buffer and was added to each tube or well. 0.5 mg freshly thawed plasma membrane protein diluted in buffer was then added in aliquots to each tube or well. Tubes or plates were incubated at 37° C. for 1 hour. Non-specific binding was determined with 10^−7 M of glucagon. Bound tracer and unbound tracer were then separated by vacuum filtration. The tubes or wells were washed twice with 0.01% Triton X-100 buffer. Scintillation fluid was added to the plates and radioactivity was quantified using a scintillation counter.

T1 sequence (P47871 26-477): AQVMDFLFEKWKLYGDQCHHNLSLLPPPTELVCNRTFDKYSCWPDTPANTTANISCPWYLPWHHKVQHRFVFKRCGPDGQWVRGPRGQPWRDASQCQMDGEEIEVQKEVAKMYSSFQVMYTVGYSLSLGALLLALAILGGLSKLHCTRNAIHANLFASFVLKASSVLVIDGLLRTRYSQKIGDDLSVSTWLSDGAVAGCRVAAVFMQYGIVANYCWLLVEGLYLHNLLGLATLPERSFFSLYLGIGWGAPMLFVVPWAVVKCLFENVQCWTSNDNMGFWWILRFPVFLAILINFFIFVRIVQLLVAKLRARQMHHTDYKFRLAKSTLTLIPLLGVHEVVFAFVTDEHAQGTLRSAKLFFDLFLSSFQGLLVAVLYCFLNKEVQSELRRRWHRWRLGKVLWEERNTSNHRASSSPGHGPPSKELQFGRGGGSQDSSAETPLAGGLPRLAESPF

For `Cc1cc(C)cc(NC(=O)N(Cc2ccc(C(=O)NCCC(=O)O)cc2)c2ccc(C3CCCCC3)cc2)c1` [Example 186, 3-{4-[1-(4-Cyclohexylphenyl)-3-(3,5-dimethylphenyl)ureidomethyl]benzoylamino}propionic acid], the inhibition at 1 µM was greater than 50%.

target: T2, human glucagon receptor (Homo sapiens, UniProt P47871); assay: Glucagon Binding Assay (III); conditions: BHK cell membranes, WGA SPA beads, 125I-glucagon; read-out: Glu Bd Assay (III) IC50
T2 construct: expressed in transfected cells; host or cells: BHK (baby hamster kidney) cells
T2 sequence (P47871 26-477): as above
Summary of the method: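 Non-specific binding was set with 500 nM glucagon in this SPA-type binding assay using WGA beads. The receptor source was a membrane preparation, kept on ice or at 4 °C, from BHK cells transfected with the human receptor. Scintillation counts were taken after 4 hours of shaking and 8–48 hours of settling.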

Going from `O=C(Nc1nn[nH]n1)c1ccc(CN(C(=O)CSCc2ccccc2)c2ccc(C3CCCCC3)cc2)cc1` [Example 532, 4-{[(2-Benzylsulfanylacetyl)-(4-cyclohexylphenyl)amino]methyl}-N-(2H-tetrazol-5-yl)benzamide] to `O=C(Nc1nn[nH]n1)c1ccc(CN(C(=O)Nc2ccc(Br)c(C(F)(F)F)c2)c2ccc(C3=CCCCC3)cc2)cc1` [Example 601, 4-[3-(4-Bromo-3-trifluoromethylphenyl)-1-(4-cyclohex-1-enylphenyl)ureidomethyl]-N-(2H-tetrazol-5-yl)benzamide], the IC50 falls from 626 nM to 17 nM (37-fold). The second is the more potent here.

Going from `CC(C)(C)c1ccc(N(Cc2ccc(C(=O)Nc3nn[nH]n3)cc2)C(=O)Nc2cccc(C#N)c2)cc1` [Example 295, 4-[1-(4-tert-Butylphenyl)-3-(3-cyanophenyl)ureidomethyl]-N-(2H-tetrazol-5-yl)benzamide] to `O=C(Nc1nn[nH]n1)c1ccc(CN(C(=O)NCc2ccc(OC(F)(F)F)cc2)c2ccc(C3CCCCC3)cc2)cc1` [Example 347, 4-[1-(4-Cyclohexylphenyl)-3-(4-trifluoromethoxybenzyl)ureidomethyl]-N-(2H-tetrazol-5-yl)benzamide], the IC50 falls from 279 nM to 79 nM (3.5-fold). The second is the more potent here.

Compared with `O=C(Nc1nn[nH]n1)c1ccc(CN(C(=O)Nc2ccc3c(c2)C(=O)N(CC2CC2)C3=O)c2ccc(C3CCCCC3)cc2)cc1` [Example 639, 4-[1-(4-Cyclohexylphenyl)-3-(N′-[cyclopropylmethyl]phthalimid-4-yl)ureidomethyl]-N-(2H-tetrazol-5-yl)benzamide], “(4-tert-Butylcyclohexyl)-3-(N′-[cyclopropylmethyl]phthalimid-4-yl)ureidomethyl]-N-(2H-tetrazol-5-yl)benzamide [Example 638]” is 2.8-fold higher in IC50: 4 nM for the first, 11 nM for the second. The first is the more potent here.

Going from `CC(C)N1C(=O)c2ccc(NC(=O)N(Cc3ccc(C(=O)NCCC(=O)O)cc3)C3CCC(C(C)(C)C)CC3)cc2C1=O` (stereo not drawn) [Example 632, 3-{4-[1-(4-tert-Butylcyclohexyl)-3-(N′-isopropylphthalimid-4-yl)ureidomethyl]benzoylamino}propionic acid] to `O=C(O)CCNC(=O)c1ccc(CN(Cc2ccc(C(F)(F)F)cc2)Cc2ccc(C(F)(F)F)cc2)cc1` [Example 384, 3-(4-{[Bis(4-trifluoromethylbenzyl)amino]methyl}benzoylamino)propionic acid], the IC50 rises from 91 nM to 324 nM (3.6-fold).

First: COc1cc(OC)c(NC(=O)N(Cc2ccc(C(=O)NCCC(=O)O)cc2)C2CCC(C(C)(C)C)CC2)cc1Cl (stereo not drawn) [Example 24, 3-{4-[1-(4-tert-Butylcyclohexyl)-3-(5-chloro-2,4-dimethoxyphenyl)ureidomethyl]benzoylamino}propionic acid]
Second: CCCCOc1ccc(NC(=O)N(Cc2ccc(C(=O)Nc3nn[nH]n3)cc2)c2ccc(C3CCCCC3)cc2)cc1S(C)(=O)=O [Example 368, 4-[3-(4-Butoxy-3-methylsulfonylphenyl)-1-(4-cyclohexylphenyl)ureidomethyl]-N-(2H-tetrazol-5-yl)benzamide]
The IC50 of the first is 46-fold higher: 1700 nM for the first, 37 nM for the second. The second is the more potent here.

`CC(Oc1ccc(Cl)cc1)C(=O)N(Cc1ccc(C(=O)Nc2nn[nH]n2)cc1)c1ccc(C2CCCCC2)cc1` (stereo not drawn) [Example 491, 4-{[[2-(4-Chlorophenoxy)propionyl]-(4-cyclohexylphenyl)amino]methyl}-N-(2H-tetrazol-5-yl)benzamide] and `CSc1cccc(NC(=O)N(Cc2ccc(C(=O)NCCC(=O)O)cc2)C2CCC(C(C)(C)C)CC2)c1` (stereo not drawn) [Example 26, 3-{4-[1-(4-tert-Butylcyclohexyl)-3-(3-methylsulfanylphenyl)ureidomethyl]benzoylamino}propionic acid] are within 1.5-fold of each other in IC50: 264 nM for the first, 385 nM for the second.

Compared with `CC(C)(C)C1CCC(N(Cc2ccc(C(=O)NCCC(=O)O)cc2)C(=O)Nc2ccc(Oc3ccccc3)cc2)CC1` (stereo not drawn) [Example 17, 3-{4-[1-(4-tert-Butylcyclohexyl)-3-(4-phenoxyphenyl)ureidomethyl]benzoylamino}propionic acid], `CC(C)N1C(=O)c2ccc(NC(=O)N(Cc3ccc(C(=O)Nc4nn[nH]n4)cc3)c3ccc(C4CCCCC4)cc3)cc2C1=O` [Example 627, 4-[1-(4-Cyclohexylphenyl)-3-(N-isopropylphthalimid-4-yl)ureidomethyl]-N-(2H-tetrazol-5-yl)benzamide] is 3.4-fold lower in IC50: 27 nM for the first, 8 nM for the second. The second is the more potent here.

Compared with `O=C(O)CCNC(=O)c1ccc(CN(C(=O)Oc2ccc(F)c(F)c2)c2ccc(C3CCCCC3)cc2)cc1` [Example 417, 3-(4-{[(4-Cyclohexylphenyl)-(3,4-difluorophenoxycarbonyl)amino]methyl}benzoylamino)propionic acid], `CC(C)(C)C1CCC(N(Cc2ccc(C(=O)Nc3nn[nH]n3)cc2)C(=O)/C=C/c2ccc(Cl)cc2)CC1` (stereo not drawn) [Example 549, 4-({(4-tert-Butylcyclohexyl)-[3-(4-chlorophenyl)acroloyl]amino}methyl)-N-(2H-tetrazol-5-yl)benzamide] is 16-fold lower in IC50: 877 nM for the first, 55 nM for the second. The second is the more potent here.

Going from `O=C(O)CCNC(=O)c1ccc(CN(C(=O)Nc2ccc(OC(F)(F)F)cc2)c2ccc(C(F)(F)F)cc2)cc1` [Example 437, 3-{4-[3-(4-Trifluoromethoxyphenyl)-1-(4-trifluoromethylphenyl)ureidomethyl]benzoylamino}propionic acid] to `CC(C)(C)C1CCC(N(Cc2ccc(C(=O)NCCC(=O)O)cc2)C(=O)Nc2ccc3c(c2)C(=O)N(CC2CC2)C3=O)CC1` (stereo not drawn) [Example 641, 3-{4-[1-(4-tert-Butylcyclohexyl)-3-(N′-[cyclopropylmethyl]phthalimid-4-yl)ureidomethyl]benzoylamino}propionic acid], the IC50 falls from 207 nM to 21 nM (9.9-fold). The second is the more potent here.

Compared with `CC(C)(C)C1CCC(N(Cc2ccc(C(=O)NCCC(=O)O)cc2)C(=O)Oc2ccc(Cl)c(Cl)c2)CC1` (stereo not drawn) [Example 401, 3-(4-{[(4-tert-Butylcyclohexyl)-(3,4-dichlorophenoxycarbonyl)amino]methyl}benzoylamino)propionic acid], `O=C(O)CCNC(=O)c1ccc(CN(C(=O)Oc2cc(Cl)cc(Cl)c2)c2ccc(C3CCCCC3)cc2)cc1` [Example 400, 3-(4-{[(4-Cyclohexylphenyl)-(3,5-dichlorophenoxycarbonyl)amino]methyl}benzoylamino)propionic acid] is 3-fold higher in IC50: 176 nM for the first, 533 nM for the second.

Compared with `CC(C)(C)C1CCC(N(Cc2ccc(C(=O)Nc3nn[nH]n3)cc2)C(=O)c2cccc3[nH]ccc23)CC1` (stereo not drawn) [Example 516, 4-{[(4-tert-Butylcyclohexyl)-(1H-indol-4-ylcarbonyl)amino]methyl}-N-(2H-tetrazol-5-yl)benzamide], `CC(C)(C)C1CCC(N(Cc2ccc(C(=O)Nc3nn[nH]n3)cc2)C(=O)c2cc3cc(Cl)ccc3o2)CC1` (stereo not drawn) [Example 490, 5-Chlorobenzofuran-2-carboxylic acid (4-tert-butylcyclohexyl)-[4-(2H-tetrazol-5-ylcarbamoyl)benzyl]amide] is 18-fold lower in IC50: 2490 nM for the first, 136 nM for the second.

Compared with `O=C(Nc1nn[nH]n1)c1ccc(CN(C(=O)c2cccc([N+](=O)[O-])c2)c2ccc(C3CCCCC3)cc2)cc1` [Example 481, 4-{[(4-Cyclohexylphenyl)-(3-nitrobenzoyl)amino]methyl}-N-(2H-tetrazol-5-yl)benzamide], `O=C(O)CCNC(=O)c1ccc(CN(CC(c2ccccc2)c2ccccc2)C(=O)Cc2cccc(OC(F)(F)F)c2)cc1` [Example 556] is 3-fold lower in IC50: 1980 nM for the first, 660 nM for the second. The second is the more potent here.

First: O=C(Nc1nn[nH]n1)c1ccc(CN(C(=O)Nc2cccc(Br)c2)c2ccc(C3CCCCC3)cc2)cc1 [Example 356, 4-[3-(3-Bromophenyl)-1-(4-cyclohexylphenyl)ureidomethyl]-N-(2H-tetrazol-5-yl)benzamide]
Second: O=C(O)CCNC(=O)c1ccc(CN(CCC(c2ccccc2)c2ccccc2)C(=O)Nc2ccc(OC(F)(F)F)cc2)cc1 [Example 18, 3-{4-[1-(3,3-Diphenylpropyl)-3-(4-trifluoromethoxyphenyl)ureidomethyl]benzoylamino}propionic acid]
The IC50 of the first is 7.9-fold lower: 16 nM for the first, 126 nM for the second. The first is the more potent here.

First: CC(C)(C)C1CCC(N(Cc2ccc(C(=O)Nc3nn[nH]n3)cc2)C(=O)NCCc2ccccc2)CC1 (stereo not drawn) [Example 324, 4-[1-(4-tert-Butylcyclohexyl)-3-phenethylureidomethyl]-N-(2H-tetrazol-5-yl)benzamide]
Second: CCOc1ccc(N(Cc2ccc(C(=O)NCCC(=O)O)cc2)C(=O)Nc2ccc(OC(F)(F)F)cc2)cc1 [Example 442, 3-{4-[1-(4-Ethoxyphenyl)-3-(4-trifluoromethoxyphenyl)ureidomethyl]benzoylamino}propionic acid]
The IC50 of the first is 15-fold lower: 277 nM for the first, 4100 nM for the second.

same assay, conditions: Glu Bd Assay (III) IC50 (nM), BHK cell membranes, WGA SPA beads, 125I-glucagon

`CC(C)(C)[C@H]1CC[C@H](N(Cc2ccc(C(=O)NCCC(=O)O)cc2)C(=O)Nc2ccc(OC(F)(F)F)cc2Br)CC1` [Example 242, 3-{4-[3-(2-Bromo-4-trifluoromethoxyphenyl)-1-(trans-4-tert-butylcyclohexyl)ureidomethyl]benzoylamino}propionic acid] gave an IC50 of 153 nM.
